Tests used:
NK3 receptor = target: T1, NK3 receptor (Homo sapiens, UniProt P29371); assay: NK binding affinity, scintillation proximity assay (SPA), 125I [MePhe7]-NKB; settings: plasma membrane from CHO cell lines expressing NK3, read-out: NK3 pKi (converted)
T1 construct: expressed in transfected cells; host or cells: CHO cell line, plasma membrane preparation
T1 sequence (P29371 1-465): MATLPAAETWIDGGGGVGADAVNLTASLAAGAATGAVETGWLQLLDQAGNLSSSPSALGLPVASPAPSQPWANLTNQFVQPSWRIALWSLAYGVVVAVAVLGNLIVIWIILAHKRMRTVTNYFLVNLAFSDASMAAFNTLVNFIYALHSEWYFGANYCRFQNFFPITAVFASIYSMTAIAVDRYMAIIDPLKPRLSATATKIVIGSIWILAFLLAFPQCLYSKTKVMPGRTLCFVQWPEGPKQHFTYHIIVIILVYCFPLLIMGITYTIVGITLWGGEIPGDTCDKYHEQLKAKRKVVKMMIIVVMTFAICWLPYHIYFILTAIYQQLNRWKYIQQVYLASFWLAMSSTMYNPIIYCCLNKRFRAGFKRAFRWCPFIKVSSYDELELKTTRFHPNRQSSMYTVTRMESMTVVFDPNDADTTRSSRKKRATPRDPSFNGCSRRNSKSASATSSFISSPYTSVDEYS
Description: (§1) The NK binding affinity of the compounds of the invention was determined using the following scintillation proximity assay (SPA) (see H. M. Sarau et al, J. Pharmacol. Experimental Therapeutics 1997, 281(3), 1303-1311; H. M. Sarau et al, J. Pharmacol. Experimental Therapeutics 2000, 295(1), 373-381; G. A. M. Giardina et al J.Med.Chem 1999, 42, 1053-1065). ^125I Substance P, ^125I NKA and ^125I [MePhe7]-NKB were used in the binding SPA of NK1, NK2 and NK3 receptor, respectively. Polystrene Leadseeker WGA-SPA beads (Amersham Biosciences) were mixed with plasma membrane prepared from CHO cell lines expressing NK1, NK2 or NK3 in a bead/membrane ratio of 20:1 (w/w) in assay buffer (75 mM Tris pH 7.8, 75 mM NaCl, 4 mM MnCl2, 1 mM EDTA, 0.05% Chaps, 1 mM PMSF). The mixture was placed on ice for 30 minutes to allow the formation of membrane/bead complex before BSA was added to a final concentration of 1%. After another 30 minutes incubation on ice, the bead/membrane complex was washed twice and suspended in assay buffer. ^125I-labelled ligands were then added to the bead/membrane complex. 30 μl of the resulting mixture was then dispensed into each well of a Nalgen NUNC 384-well plate with 1 μl compound pre-dispensed in 50% DMSO. The plates were then sealed and pulse spun at 1100 rpm. After 3 hours incubation at room temperature with shaking, the plates were spun for 2 min at 1100 rpm and measured in Viewlux imager (PerkinElmer) for 5 minutes with a 618-nm filter. Inhibition of radioactive ligand binding to its respective receptor was measured by the reduction of signal. pKi was calculated using Kd of each radioactive ligand determined in a separate experiment.

NK2 receptor = target: T2, NK2 receptor (Homo sapiens, UniProt P21452); assay: NK binding affinity, scintillation proximity assay (SPA), 125I NKA; settings: plasma membrane from CHO cell lines expressing NK2, read-out: NK2 pKi (converted)
T2 construct: expressed in transfected cells; host or cells: CHO cell line, plasma membrane preparation
T2 sequence (P21452 1-398): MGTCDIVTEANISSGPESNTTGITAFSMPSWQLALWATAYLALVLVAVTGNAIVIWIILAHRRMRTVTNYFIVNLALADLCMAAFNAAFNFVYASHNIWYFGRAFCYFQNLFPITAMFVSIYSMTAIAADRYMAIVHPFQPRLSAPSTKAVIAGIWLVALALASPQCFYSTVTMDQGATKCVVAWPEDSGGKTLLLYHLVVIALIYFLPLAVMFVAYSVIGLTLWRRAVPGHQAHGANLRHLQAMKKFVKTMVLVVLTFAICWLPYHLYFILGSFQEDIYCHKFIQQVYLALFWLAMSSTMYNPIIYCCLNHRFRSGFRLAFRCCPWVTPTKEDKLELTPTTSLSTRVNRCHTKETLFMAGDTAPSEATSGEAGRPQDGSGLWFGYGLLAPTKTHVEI
Description: as §1

NK1 receptor = target: T3, NK1 receptor (Homo sapiens, UniProt P25103); assay: NK binding affinity, scintillation proximity assay (SPA), 125I Substance P; settings: plasma membrane from CHO cell lines expressing NK1, read-out: NK1 pKi (converted)
T3 construct: expressed in transfected cells; host or cells: CHO cell line, plasma membrane preparation
Description: as §1

[1] = Measurement of brain exposure; type: in vivo; settings: rats, orally dosed 3 mg/kg as 1% methylcellulose suspension; brain homogenate concentration vs time over 12 hr
Description: Compounds of the invention were orally dosed (3 mg/kg) to rats as 1% methylcellulose (w/v) suspensions. The rats were sacrificed after set time intervals and the concentration of the compound of the invention in brain homogenate was determined by protein precipitation followed by LC-MS-MS analysis of the extracts against standards prepared in brain homogenate. A graph of brain concentration against time was plotted over a 12 hr period. The area under the curve (AUC, units=hours.ng/g brain) was taken as a measure of brain exposure.

T3 sequence (P25103 whole entry): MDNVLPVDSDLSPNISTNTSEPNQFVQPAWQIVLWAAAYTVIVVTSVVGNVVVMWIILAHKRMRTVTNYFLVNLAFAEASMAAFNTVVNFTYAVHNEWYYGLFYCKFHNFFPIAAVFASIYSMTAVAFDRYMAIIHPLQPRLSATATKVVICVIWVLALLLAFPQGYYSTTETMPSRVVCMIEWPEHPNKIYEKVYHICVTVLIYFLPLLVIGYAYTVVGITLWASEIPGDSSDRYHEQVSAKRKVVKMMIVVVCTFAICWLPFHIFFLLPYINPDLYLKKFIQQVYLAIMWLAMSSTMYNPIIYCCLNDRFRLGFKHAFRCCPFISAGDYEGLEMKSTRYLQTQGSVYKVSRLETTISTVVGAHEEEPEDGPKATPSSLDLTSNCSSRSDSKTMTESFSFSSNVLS

Structure (SMILES): O=C(N[C@H](c1cccc(F)c1)C1CC1)c1c(Cn2nccn2)c(-c2ccccc2)nc2ccccc12 [Example 37, 2-Phenyl-3-[1,2,3]triazol-2-ylmethyl-quinoline-4-carboxylic acid [(S)-1-cyclopropyl-1-(3-fluoro-phenyl)-methyl]-amide]
- Ki (NK3 receptor): 2.51 nM
- Ki (NK2 receptor): 158 nM
- Ki (NK1 receptor): 631 nM
- Brain Exposure (AUC, h · ng/g brain) [1]: 2091 h · ng/g brain

Structure (SMILES): O=C(N[C@H](c1ccccc1)C1CC1)c1c(Cn2nccn2)c(-c2cccc(F)c2)nc2ccccc12 [Example 1, 2-(3-Fluoro-phenyl)-3-[1,2,3]triazol-2-ylmethyl-quinoline4-carboxylic acid ((S)-1-cyclopropyl-1-phenyl-methyl)-amide]
- Ki (NK3 receptor): 10 nM
- Ki (NK2 receptor): 316 nM
- Ki (NK1 receptor): 1000 nM
- Brain Exposure (AUC, h · ng/g brain) [1]: 1896 h · ng/g brain

Structure (SMILES): O=C(N[C@H](c1cccc(F)c1)C1CC1)c1c(Cn2ncnn2)c(-c2ccccc2)nc2ccccc12 [Example 35, 2-Phenyl-3-tetrazol-2-ylmethyl-quinoline-4-carboxylic acid [(S)-1-cyclopropyl-1-(3-fluoro-phenyl)-methyl]-amide]
- Ki (NK3 receptor): 3.98 nM
- Ki (NK2 receptor): 251 nM
- Ki (NK1 receptor): 1260 nM
- Brain Exposure (AUC, h · ng/g brain) [1]: 2361 h · ng/g brain

Structure (SMILES): O=C(N[C@H](c1ccccc1)C1CC1)c1c(Cn2ncnn2)c(-c2cccc(F)c2)nc2ccccc12 [Example 45, 2-(3-Fluoro-phenyl)-3-tetrazol-2-ylmethyl-quinoline-4-carboxylic acid ((S)-1-cyclopropyl-1-phenyl-methyl)-amide]
- Ki (NK3 receptor): 10 nM
- Ki (NK2 receptor): 251 nM
- Ki (NK1 receptor): 1260 nM
- Brain Exposure (AUC, h · ng/g brain) [1]: 1900 h · ng/g brain

Reference: US20070142431A1, “Quinoline 4-carboxamide derivatives and their use as neurokinin 3 (nk-3) receptor antagonists” (SmithKline Beecham Corporation, priority 2003, published 2007)
